Each block holds one compound with its values, some of them ahead of it.
Assays:
[1] = Permeability across in vitro blood-brain barrier model
Method: (§1) In order to test the permeability of TPGnRH nanofibers across the blood-brain barrier (BBB), a static contact co-culture was set up according to a previous method^7. Briefly, human astrocytes (SC-1800, 25,000 cells/well) were seeded on the abluminal side of a 24-well plate Transwell polycarbonate membrane (3 μm of a pore size, Corning Star, Deeside, UK) coated with human fibronectin. Cells were allowed to attach for 3 days, and then human brain microvascular endothelial cells (hCMEC/D3, 75,000 cells/well) were seeded on the luminal side of the Transwell and co-cultured with astrocytes for five days with a daily change of the media. Transendothelial resistance was measured using EVOM voltohmmeter (World Precision Instruments, Berlin, Germany).
(§2) Transwells were washed with HBSS and immersed into HBSS (600 μL in abluminal side). […] Samples (100 μL) were collected from the abluminal side at specific time-points, and fresh HBSS (100 μL) was used to replace the volume from the abluminal compartments. […] PAX was analysed using reverse phase-HPLC with the gradient method described on Table 2. TR-TPGnRH was quantified in POLARstar Omega plate reader spectrophotometer with λexc 596 and λem 615 nm. The permeability coefficient (Papp) was determined using the equation: […]
(§3) ΔQr, is the flux of drug along time (μg mL^−1), Vr is the volume of the abluminal side (mL), A is the area of the Transwell membrane, C0 is the concentration of drug in the luminal side, and 60, the converser factor from minutes to seconds^8.

[2] = system: hCMEC/D3 endothelial cells; assay: Cell uptake in endothelial cells (flow cytometry); format: cell-based, human; settings: 4 hours of incubation, 50 μg mL^−1
Method: TPGnRH was labelled with Texas Red (TR) according to the manufacturer's protocol. Endothelial cells were seeded (227,000 cells/cm^2) in 24-well plates, allowed to attach for 24 hours, and then media was replaced by fresh media containing TR-TPGnRH at 50 μg mL^−1 in PBS. Cells were either incubated at 4 or 37° C. for 1 and 4 hours. At the end of a time-point, cells were washed with HBSS to remove the free nanofibers, incubated with 500 μL of TrypLE Express Enzyme and collected by centrifugation. The cell pellet was then re-suspended in PBS, and cells were analysed in BD FACS Calibur™ flow cytometer (BD Biosciences, Wiltshire, UK) acquiring at least 10,000 events. Data were analysed in FlowJo® Software 10.1. Unstained cells were used as a control in the flow cytometry settings.

U-87 MG cells = assay: Cell uptake of TR-TPGnRH, U-87 MG; format: cell-based, human
Method: (§4) The U-87 MG and SK-OV-3 cells were seeded at 20,000 cells/cm^2 in a 12-well plate (76,000 cells per well). Cells were allowed to attach overnight, and then the media was replaced by fresh media (900 μL) containing TR-TPGnRH (50 μg mL^−1 in PBS, 100 μL, pH 7.4). Subsequently, cells were either incubated at 4 or 37° C. for 1 and 4 hours. At the end of each time-point, cells were washed with HBSS twice to wash the free fibres, incubated with 500 μL TrypLE Enzyme at 37° C. for 3 minutes, and then collected by centrifugation at 1,000 rpm for 5 minutes using a C-28A centrifuge. Cells were then re-suspended in PBS (200 μL) and analysed in BD FACSCalibur™ flow cytometer acquiring at least 10,000 events. Unstained cells were used as a control in the flow cytometry settings.

SK-OV-3 cells = assay: Cell uptake of TR-TPGnRH, SK-OV-3; format: cell-based, human
Method: as §4

[3] = system: in vitro BBB model (hCMEC/D3 and SC-1800 co-culture); assay: in vitro
Method: as §1, §2, §3

Compound: CCCCCCCCCCCCCCCC(=O)Oc1ccc(C[C@H](NC(=O)[C@H](CO)NC(=O)[C@H](Cc2c[nH]c3ccccc23)NC(=O)[C@H](Cc2c[nH]cn2)NC(=O)[C@H](CCC(=O)O)NS(=O)(=O)c2ccc(-c3c4cc5c6c(c4[o+]c4c7c8c(cc34)CCCN8CCC7)CCCN6CCC5)c(S(=O)(=O)[O-])c2)C(=O)NCC(=O)N[C@@H](CC(C)C)C(=O)N[C@@H](CCCNC(=N)N)C(=O)N2CCC[C@H]2C(=O)NCC(N)=O)cc1 [Texas Red-TPGnRH]
Papp A→B [1]: 6 ×10⁻⁶ cm/s
TR-TPGnRH+ cells ([2]; 4° C.): 0.18±0.05%
TR-TPGnRH+ cells ([2]; 37° C.): 68.43±0.85%
Cell uptake (U-87 MG cells; 1 Hour, 4° C.): 20.51 ± 3.10
Cell uptake (U-87 MG cells; 1 Hour, 37° C.): 32.64 ± 5.04
Cell uptake (U-87 MG cells; 4 Hours, 4° C.): 52.36 ± 10.20
Cell uptake (U-87 MG cells; 4 Hours, 37° C.): 91.12 ± 1.11
Cell uptake (SK-OV-3 cells; SK-OV-3, 1 Hour, 4° C.): 10.02 ± 0.52
Cell uptake (SK-OV-3 cells; SK-OV-3, 1 Hour, 37° C.): 13.35 ± 0.53
Cell uptake (SK-OV-3 cells; SK-OV-3, 4 Hours, 4° C.): 52.47 ± 3.34
Cell uptake (SK-OV-3 cells; SK-OV-3, 4 Hours, 37° C.): 49.36 ± 4.66

Papp [3]: 111.78 ± 24.30 ×10^−6 cm s^−1
Compound: Texas Red [Free Texas Red]

From patent publication US20210038730A1, “PEPTIDE NANOFIBERS” (UNIVERSITY OF PORTSMOUTH HIGHER EDUCATION CORPORATION, priority 2018, published 2021)
